Reference: patent publication US8377974B2 (Millennium Pharmaceuticals, Inc., priority 2004, dated 2013)

Target: T1, human plasma protein factor Xa (Homo sapiens, UniProt P00742)
T1 construct: measure proteolytic activity of the enzyme (factor Xa); purchased Haematologic Technologies (Essex Junction, Vt.); host or cells: human plasma
Experiment: Factor Xa IC50 determination: cleavage of paranitroanilide substrate S-2765 in 96-well plates
Assay type: biochemical
Details: fXa 1 nM, S-2765 100 μM, Tris buffered saline pH 7.4, room temperature
Text: This example illustrates methods for evaluating the compounds of the invention, along with results obtained for such assays. The in vitro and in vivo Factor Xa isoform activities of the inventive compounds can be determined by various procedures known in the art, such as a test for their ability to inhibit the activity of the Factor Xa isoform. […] The IC50 value is the concentration (in nM) of the compound required to provide 50% inhibition of Factor Xa isoform.
An in vitro assay for detecting and measuring inhibition activity against Factor Xa is as follows:
The substrate S-2765 (Z-D-Arg-Gly-Arg-pNA.HCl) was obtained from Diapharma (West Chester, Ohio).
The human plasma protein factor Xa was purchased from Haematologic Technologies (Essex Junction, Vt.).
All assays, which are performed in 96-well microtiter plates, measure proteolytic activity of the enzyme (factor Xa) by following cleavage of paranitroanilide substrate. The assay buffer used for proteolytic assays was Tris buffered saline (20 mM Tris, 150 mM NaCl, 5 mM CaCl2, 0.1% Bovine serum albumin (BSA), 5% Dimethly Sulfoxide (DMSO) pH 7.4). In a 96-well microtiter plate, inhibitor was serially diluted to give a range of concentrations from 0.01 nM to 10 μM (final). Duplicate sets of wells were assayed and control wells without inhibitor were included. Enzyme was added to each well, (fXa concentration=1 nM), the plate was shaken for 5 seconds and then incubated for 5 minutes at room temperature. S2765 was added (100 μM final) and the plate was shaken for 5 seconds (final liquid volume in each well was 200 μl). The degree of substrate hydrolysis was measured at 405 nm on a Thermomax plate reader (Molecular Devices, Sunnyvale, Calif.) for 2 minutes. The initial velocities (mOD/min), for each range of inhibitor concentrations, were fitted to a four parameter equation using Softmax data analysis software. The parameter C, derived from the resulting curve-fit, corresponded to the concentration for half maximal inhibition (IC50).

T1 sequence (P00742 235-488 limits assumed): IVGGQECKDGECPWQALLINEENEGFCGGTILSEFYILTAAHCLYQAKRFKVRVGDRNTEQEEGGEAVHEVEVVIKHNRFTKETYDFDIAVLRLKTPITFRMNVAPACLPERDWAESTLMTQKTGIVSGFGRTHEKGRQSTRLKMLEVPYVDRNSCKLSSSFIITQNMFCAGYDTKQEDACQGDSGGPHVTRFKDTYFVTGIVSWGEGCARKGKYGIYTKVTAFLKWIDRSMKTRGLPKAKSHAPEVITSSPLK
T1 sequence (P00742 41-179 partner limits assumed): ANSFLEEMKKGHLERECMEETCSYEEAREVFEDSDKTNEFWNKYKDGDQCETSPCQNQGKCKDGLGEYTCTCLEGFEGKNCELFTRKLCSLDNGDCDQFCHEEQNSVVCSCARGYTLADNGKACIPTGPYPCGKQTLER

C[C@@H](NC(=O)c1ccc(Cl)s1)c1cc(-c2ccc(C(=N)N3CCCCC3)cc2)no1 [Example 52, (R)-5-Chloro-thiophene-2-carboxylic acid (1-{3-[4-(imino-piperidin-1-yl-methyl)-phenyl]-isoxazol-5-yl}-ethyl)-amide] gave an IC50 of no less than 500 nM.

In the case of O=C(NCC1CC(c2ccc(-c3ccncc3)cc2)=NO1)c1ccc(Cl)s1 (stereo not shown) [Example 191, 5-Chloro-thiophene-2-carboxylic acid [3-(4-pyridin-4-yl-phenyl)-4,5-dihydro-isoxazol-5-ylmethyl]-amide], the IC50 is reported as no less than 500 nM.

With N=C(c1ccc(-c2noc(CNC(=O)c3ccc(Cl)s3)n2)cc1)N1CCCCC1 [Example 337, 5-Chloro-N-((3-(4-(imino(piperidin-1-yl)methyl)phenyl)-1,2,4-oxadiazol-5-yl)methyl)thiophene-2-carboxamide] the IC50 was no more than 100 nM.

O=C(NCc1cc(-c2cccc(-c3cccnc3)c2)no1)c1ccc(Cl)s1 [Example 276, 5-Chloro-thiophene-2-carboxylic acid [3-(3-pyridin-3-yl-phenyl)-isoxazol-5-ylmethyl]-amide] showed an IC50 of no less than 500 nM.

With O=C(NCc1cn(-c2ccc(-n3cc(F)ccc3=O)cc2)nn1)c1ccc(Cl)s1 [Example 298, 5-Chloro-N-((1-(4-(5-fluoro-2-oxopyridin-1(2H)-yl)phenyl)-1H-1,2,3-triazol-4-yl)methyl)thiophene-2-carboxamide] the IC50 was no more than 100 nM.

Molecule CN(C)C(=N)c1ccc(-c2csc(CNC(=O)c3ccc(Cl)s3)n2)cc1 [Example 360, N-((4-(4-(N,N-Dimethylcarbamimidoyl)phenyl)thiazol-2-yl)methyl)-5-chlorothiophene-2-carboxamide] has an IC50 of no less than 500 nM.

O=C(NCc1cn(-c2ccc(N3CCCNCC3)nc2)nn1)c1ccc(Cl)s1 [Example 384, N-((1-(6-(1,4-Diazepan-1-yl)pyridin-3-yl)-1H-1,2,3-triazol-4-yl)methyl)-5-chlorothiophene-2-carboxamide] was tested, and the IC50 was no more than 100 nM.

With COC(=O)c1ccc(C2=NOC(CNC(=O)c3ccc(Cl)s3)C2)cc1 (stereo not shown) [Example 156, 4-(5-{[(5-Chloro-thiophene-2-carbonyl)-amino]-methyl}-4,5-dihydro-isoxazol-3-yl)-benzoic acid methyl ester] the IC50 was no less than 500 nM.

In the case of CSc1cc(C(=N)N2CCCCC2)ccc1-c1cc(CNC(=O)c2ccc(Cl)s2)on1 [Example 143, 5-Chloro-thiophene-2-carboxylic acid {3-[4-(imino-piperidin-1-yl-methyl)-2-methylsulfanyl-phenyl]-isoxazol-5-ylmethyl}-amide], the IC50 is reported as no less than 500 nM.

N=C(c1ccc(-c2ccc(F)c(CNC(=O)c3ccc(Cl)s3)c2)cc1)N1CCCC1 [Example 376, 5-Chloro-N-((5-(4-(imino(pyrrolidin-1-yl)methyl)phenyl)-2-fluorophenyl)methyl)thiophene-2-carboxamide] gave an IC50 of no more than 100 nM.

Molecule N=C(c1ccc(-c2nc(CNC(=O)c3ccc(Cl)s3)cs2)cc1)N1CCCCC1 [Example 353, 5-Chloro-N-((2-(4-(imino(piperidin-1-yl)methyl)phenyl)thiazol-4-yl)methyl)thiophene-2-carboxamide] has an IC50 of 100 to 500 nM.

CN(C)CCN(C)C(=N)c1ccc(-c2nc(CNC(=O)c3ccc(Cl)s3)co2)cc1 [Example 345, N-((2-(4-(N-(2-(Dimethylamino)ethyl)-N-methylcarbamimidoyl)phenyl)oxazol-4-yl)methyl)-5-chlorothiophene-2-carboxamide] gave an IC50 of 100 to 500 nM.

In the case of O=C(NCc1cc(-c2cccc(-c3ccc(CN4CCCC4)cc3)c2)no1)c1ccc(Cl)s1 [Example 273, 5-Chloro-thiophene-2-carboxylic acid [3-(4′-pyrrolidin-1-ylmethyl-biphenyl-3-yl)-isoxazol-5-ylmethyl]-amide], the IC50 is reported as no less than 500 nM.

Work on N#Cc1ccc(-c2cc(CNC(=O)c3ccc(Cl)s3)on2)cc1 [Example 20, 5-Chloro-thiophene-2-carboxylic acid [3-(4-cyano-phenyl)-isoxazol-5-ylmethyl]-amide] yielded an IC50 of no more than 100 nM.

CN(C)C(=N)c1ccc(-c2noc(CNC(=O)c3ccc(Cl)s3)n2)cc1 [Example 334, N-((3-(4-(N,N-Dimethylcarbamimidoyl)phenyl)-1,2,4-oxadiazol-5-yl)methyl)-5-chlorothiophene-2-carboxamide] was tested, and the IC50 was no more than 100 nM.

In the case of O=C(NCC1CC(c2ccc(C(=O)N3CCCC3)cc2)=NO1)c1ccc(Cl)s1 (stereo not shown) [Example 164, 5-Chloro-thiophene-2-carboxylic acid {3-[4-(pyrrolidine-1-carbonyl)-phenyl]-4,5-dihydro-isoxazol-5-ylmethyl}-amide], the IC50 is reported as no more than 100 nM.

With O=C(NCC1CC(c2ccc(Cl)cc2)=NO1)c1ccc(Cl)s1 (stereo not shown) [Example 153, 5-Chloro-thiophene-2-carboxylic acid [3-(4-chloro-phenyl)-4,5-dihydro-isoxazol-5-ylmethyl]-amide] the IC50 was no less than 500 nM.

In the case of Cc1ccn(-c2ccc(C3=NOC(CNC(=O)c4ccc(Cl)s4)C3)cc2)c(=O)c1 (stereo not shown) [Example 284, 5-Chloro-N-((3-(4-(4-methyl-2-oxopyridin-1(2H)-yl)phenyl)-4,5-dihydroisoxazol-5-yl)methyl)thiophene-2-carboxamide], the IC50 is reported as no more than 100 nM.

For CCN(C)C(=N)c1ccc(C2=NOC(C)(CNC(=O)c3ccc(Cl)s3)C2)cc1 (stereo not shown) [Example 64, 5-Chloro-thiophene-2-carboxylic acid {3-[4-(N-ethyl-N-methyl-carbamimidoyl)-phenyl]-5-methyl-4,5-dihydro-isoxazol-5-ylmethyl}-amide], the IC50 was no more than 100 nM.

In the case of COCCN(C)C(=N)c1ccc(-c2nc(CNC(=O)c3ccc(Cl)s3)co2)cc1 [Example 346, N-((2-(4-(N-(2-Methoxyethyl)-N-methylcarbamimidoyl)phenyl)oxazol-4-yl)methyl)-5-chlorothiophene-2-carboxamide], the IC50 is reported as 100 to 500 nM.

Molecule COC(=O)c1ccc(Nc2ccc(C3=NOC(CNC(=O)c4ccc(Cl)s4)C3)cc2)cc1 (stereo not shown) [Example 262, 4-[4-(5-{[(5-Chloro-thiophene-2-carbonyl)-amino]-methyl}-4,5-dihydro-isoxazol-3-yl)-phenylamino]-benzoic acid methyl ester] has an IC50 of no less than 500 nM.

Work on CN(C)C(=N)c1ccc(-c2cc(CNC(=O)c3ccc(Cl)s3)on2)c(N2CCOCC2)c1 [Example 98, 5-Chloro-thiophene-2-carboxylic acid {3-[4-(N,N-dimethyl-carbamimidoyl)-2-morpholin-4-yl-phenyl]-isoxazol-5-ylmethyl}-amide] yielded an IC50 of no more than 100 nM.

CN(C)Cc1cccc(-c2cccc(C3=NOC(CNC(=O)c4ccc(Cl)s4)C3)c2)c1 (stereo not shown) [Example 264, 5-Chloro-thiophene-2-carboxylic acid [3-(3′-dimethylaminomethyl-biphenyl-3-yl)-4,5-dihydro-isoxazol-5-ylmethyl]-amide] gave an IC50 of no less than 500 nM.

Work on COCCN(C)c1cc(C2=NCCN2C)ccc1C1=NOC(CNC(=O)c2ccc(Cl)s2)C1 (stereo not shown) [Example 87] yielded an IC50 of 100 to 500 nM.

For COc1ccc(C2=NOC(C)(CNC(=O)c3ccc(Cl)s3)C2)cc1 (stereo not shown) [Example 151, 5-Chloro-thiophene-2-carboxylic acid [3-(4-methoxy-phenyl)-5-methyl-4,5-dihydro-isoxazol-5-ylmethyl]-amide], the IC50 was no less than 500 nM.

Work on CN(Cc1cc(-c2ccc(C(=N)N3CCCC3)cc2)no1)C(=O)c1ccc(Cl)s1 [Example 37, 5-Chloro-thiophene-2-carboxylic acid {3-[4-(imino-pyrrolidin-1-yl-methyl)-phenyl]-isoxazol-5-ylmethyl}-methyl-amide] yielded an IC50 of no less than 500 nM.

CN1CCN=C1c1ccc(-c2csc(CNC(=O)c3ccc(Cl)s3)n2)cc1 [Example 361, 5-Chloro-N-((4-(4-(1-methyl-4,5-dihydro-1H-imidazol-2-yl)phenyl)thiazol-2-yl)methyl)thiophene-2-carboxamide] showed an IC50 of no less than 500 nM.

In the case of Cc1cccn(-c2ccc(C3=NOC(CNC(=O)c4ccc(Cl)s4)C3)cc2)c1=O (stereo not shown) [Example 281, 5-Chloro-N-((3-(4-(3-methyl-2-oxopyridin-1(2H)-yl)phenyl)-4,5-dihydroisoxazol-5-yl)methyl)thiophene-2-carboxamide], the IC50 is reported as no more than 100 nM.

Work on O=Cc1ccccc1-c1ccc(-c2cc(CNC(=O)c3ccc(Cl)s3)on2)cc1 [Example 208, 5-Chloro-thiophene-2-carboxylic acid [3-(2′-formyl-biphenyl-4-yl)-isoxazol-5-ylmethyl]-amide] yielded an IC50 of no more than 100 nM.

Work on Nc1ccccc1-c1ccc(C2=NOC(CNC(=O)c3ccc(Cl)s3)C2)cc1 (stereo not shown) [Example 186, 5-Chloro-thiophene-2-carboxylic acid [3-(2′-amino-biphenyl-4-yl)-4,5-dihydro-isoxazol-5-ylmethyl]-amide] yielded an IC50 of 100 to 500 nM.

In the case of N=C(c1ccc(-c2cncc(CNC(=O)c3ccc(Cl)s3)c2)cc1)N1CCC1 [Example 371, N-((5-(4-(Azetidin-1-yl(imino)methyl)phenyl)pyridin-3-yl)methyl)-5-chlorothiophene-2-carboxamide], the IC50 is reported as no more than 100 nM.
